Data from BigSolDB 2.1.

NC(=O)c1cccnc1
solubility (mole fraction)
Details	in acetone	in ethanol	in ethyl acetate	in isobutanol	in isopropanol	in methanol	in methyl acetate	in n-butanol	in n-butyl acetate	in n-propanol
283.15 K	0.0116	0.0263	0.00797	0.0222	0.0187	0.0541	0.00929	0.0235	0.00936	0.0219
288.15 K	0.0134	0.032	0.00871	0.0248	0.023	0.0643	0.0101	0.0274	0.00955	0.0266
293.15 K	0.0164	0.0374	0.01	0.0292	0.0281	0.0748	0.0117	0.0315	0.01	0.0321
298.15 K	0.0191	0.0444	0.0112	0.0345	0.0328	0.0876	0.0135	0.0362	0.0107	0.0378
303.15 K	0.0234	0.0537	0.0129	0.0392	0.0396	0.102	0.0156	0.0416	0.0114	0.045
308.15 K	0.0286	0.0638	0.0145	0.0456	0.048	0.121	0.0179	0.0482	0.0124	0.0542
313.15 K	0.0342	0.0766	0.0163	0.0544	0.0573	0.141	0.0209	0.0566	0.0135	0.0647
318.15 K	0.0392	0.0912	0.0182	0.0637	0.0673	0.166	0.0235	0.0664	0.0153	0.0766
323.15 K	0.0472	0.11	0.0213	0.0754	0.0801	0.192	0.0272	0.0774	0.0181	0.0924
